Reference: PubChem BioAssay AID248 (DTP/NCI, 2004)
Inconclusive results and toxic doses are left out. Rule as the data show it: active = T/C of 150% or more; inactive = T/C below 125%. Peptide text beside a SMILES is read from it. * marks the point of attachment. Trt = c1ccc(C(c2ccccc2)(c2ccccc2)*)cc1; Cbz = O=C(OCc1ccccc1)*; NHNH2 = NN*

Test system: L1210 leukemia ip in BDF1 mice, survival T/C
Assay: NCI In Vivo Anticancer Drug Screen. Data for tumor model L1210 Leukemia (intraperitoneal) in B6D2F1 (BDF1) mice
Settings: endpoint: mean survival time, higher = longer survival
In short: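 Transplanted-tumor mice were given test agent; controls received vehicle only. Survival readings from the two groups were divided (treated over control).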

[1] = dose: 75.0 mg/kg/injection, schedule: Q01DX001 (ip), vehicle: saline
[2] = dose: 150.0 mg/kg/injection, schedule: Q01DX001 (ip), vehicle: saline
[3] = dose: 300.0 mg/kg/injection, schedule: Q01DX001 (ip), vehicle: saline
[4] = dose: 100.0 mg/kg/injection, schedule: Q04DX003 (ip), vehicle: Klucel (hydroxypropylcellulose) (HPC)
[5] = dose: 200.0 mg/kg/injection, schedule: Q04DX003 (ip), vehicle: Klucel (hydroxypropylcellulose) (HPC)
[6] = dose: 400.0 mg/kg/injection, schedule: Q04DX003 (ip), vehicle: Klucel (hydroxypropylcellulose) (HPC)
[7] = dose: 50.0 mg/kg/injection, schedule: Q01DX001 (ip), vehicle: carboxymethylcellulose (CMC)
[8] = dose: 100.0 mg/kg/injection, schedule: Q04DX002 (ip), vehicle: saline with Tween-80
[9] = dose: 200.0 mg/kg/injection, schedule: Q04DX002 (ip), vehicle: saline with Tween-80
[10] = dose: 400.0 mg/kg/injection, schedule: Q04DX002 (ip), vehicle: saline with Tween-80
[11] = dose: 100.0 mg/kg/injection, schedule: Q01DX009 (ip), vehicle: Klucel (hydroxypropylcellulose) (HPC)
[12] = dose: 200.0 mg/kg/injection, schedule: Q01DX009 (ip), vehicle: Klucel (hydroxypropylcellulose) (HPC)
[13] = dose: 400.0 mg/kg/injection, schedule: Q01DX009 (ip), vehicle: Klucel (hydroxypropylcellulose) (HPC)
[14] = dose: 100.0 mg/kg/injection, schedule: Q01DX001 (ip), vehicle: carboxymethylcellulose (CMC)
[15] = dose: 100.0 mg/kg/injection, schedule: Q01DX001 (ip), vehicle: Klucel (hydroxypropylcellulose) (HPC)
[16] = dose: 200.0 mg/kg/injection, schedule: Q01DX001 (ip), vehicle: Klucel (hydroxypropylcellulose) (HPC)

Measured: T/C

NNC(=O)C(Cc1ccc(O)cc1)NC(=O)C(CO)NC(=O)C(CSC(c1ccccc1)(c1ccccc1)c1ccccc1)NC(=O)OCc1ccccc1 (stereo not drawn) (Cbz-Cys(Trt)-Ser-Tyr-NHNH2; configuration not given here)
inactive: [1] 96 % of control | [2] 96 % of control | [3] 90 % of control

COc1ccc(CCNC(=O)Cc2cc(OCc3ccccc3)c(OC)cc2[N+](=O)[O-])cc1OC
inactive: dose: 100.0 mg/kg/injection, schedule: Q04DX003 (ip), vehicle: water 90 % of control | dose: 200.0 mg/kg/injection, schedule: Q01DX001 (ip), vehicle: water 91 % of control | dose: 200.0 mg/kg/injection, schedule: Q04DX003 (ip), vehicle: water 91 % of control | dose: 400.0 mg/kg/injection, schedule: Q01DX001 (ip), vehicle: water 96 % of control | dose: 400.0 mg/kg/injection, schedule: Q04DX003 (ip), vehicle: water 91 % of control

COCC(O)CCl (stereo not drawn)
inactive: dose: 25.0 mg/kg/injection, schedule: Q01DX009 (ip), vehicle: saline with Tween-80 113 % of control | dose: 50.0 mg/kg/injection, schedule: Q01DX009 (ip), vehicle: saline with Tween-80 113 % of control | dose: 100.0 mg/kg/injection, schedule: Q01DX009 (ip), vehicle: saline with Tween-80 113 % of control

OCC1(CO)CCCCC1
inactive: [4] 105 % of control | [5] 109 % of control | [6] 105 % of control

CCCCCCN(CCCCCC)C1=C(Cl)C(=O)c2ccccc2C1=O
inactive: dose: 12.5 mg/kg/injection, schedule: Q01DX001 (ip), vehicle: carboxymethylcellulose (CMC) 97 % of control | dose: 25.0 mg/kg/injection, schedule: Q01DX001 (ip), vehicle: carboxymethylcellulose (CMC) 103 % of control | [7] 96 % of control

CNCCc1ccc(OC)c(OC)c1
inactive: dose: 25.0 mg/kg/injection, schedule: Q04DX002 (ip), vehicle: saline 104 % of control | dose: 50.0 mg/kg/injection, schedule: Q04DX002 (ip), vehicle: saline 107 % of control | dose: 100.0 mg/kg/injection, schedule: Q04DX002 (ip), vehicle: saline 96 % of control

O=S(=O)(c1ccc(N=NN2CCCC2)cc1)N(CCCl)CCCl
inactive: [8] 101 % of control | [9] 101 % of control | [10] 108 % of control

C/C(=N\N=C(N)N)c1ccc(NC(N)=S)cc1
inactive: dose: 20.0 mg/kg/injection, schedule: Q01DX005 (ip), vehicle: saline 106 % of control | dose: 40.0 mg/kg/injection, schedule: Q01DX005 (ip), vehicle: saline 97 % of control

CCCc1c(C)[nH]c2ccccc12
inactive: [11] 104 % of control | [4] 105 % of control | [12] 92 % of control | [5] 104 % of control | [13] 95 % of control | [6] 105 % of control

CCc1ccc(OC/C=C(/C)CC/C=C(\C)CCC=C(C)C)cc1
inactive: [8] 110 % of control | [9] 97 % of control | [10] 87 % of control

CC(=O)OCC1OC(OC2CCCc3c(O)c4c(c(O)c32)C(=O)c2ccccc2C4=O)C(OC(C)=O)C(OC(C)=O)C1OC(C)=O (stereo not drawn)
inactive: dose: 40.0 mg/kg/injection, schedule: Q01DX001 (ip), vehicle: saline 86 % of control | dose: 80.0 mg/kg/injection, schedule: Q01DX001 (ip), vehicle: saline 92 % of control

COC1=C(Nc2cccc(C)c2)C(=O)C(OC)=C(Nc2cccc(C)c2)C1=O
inactive: [7] 94 % of control | [14] 96 % of control | dose: 200.0 mg/kg/injection, schedule: Q01DX001 (ip), vehicle: carboxymethylcellulose (CMC) 94 % of control | dose: 400.0 mg/kg/injection, schedule: Q01DX001 (ip), vehicle: carboxymethylcellulose (CMC) 91 % of control

CNc1ncnc2c1c(Br)cn2C1OC(CO)C(O)C1O (stereo not drawn)
inactive: dose: 5.0 mg/kg/injection, schedule: Q01DX001 (ip), vehicle: saline 104 % of control | dose: 10.0 mg/kg/injection, schedule: Q01DX001 (ip), vehicle: saline 104 % of control | dose: 20.0 mg/kg/injection, schedule: Q01DX001 (ip), vehicle: saline 104 % of control

O=C1C(Br)=C(Br)c2ccccc21
inactive: [7] 100 % of control | [14] 99 % of control

O=C(Nc1ccc(N=C(Nc2ccccc2)c2ccccc2)cc1)c1ccc(C(=O)Nc2ccc(N=C(Nc3ccccc3)c3ccccc3)cc2)cc1
inactive: dose: 15.0 mg/kg/injection, schedule: Q01DX Z (ip), vehicle: carboxymethylcellulose (CMC) 93 % of control | dose: 30.0 mg/kg/injection, schedule: Q01DX Z (ip), vehicle: carboxymethylcellulose (CMC) 93 % of control | dose: 60.0 mg/kg/injection, schedule: Q01DX Z (ip), vehicle: carboxymethylcellulose (CMC) 97 % of control | dose: 120.0 mg/kg/injection, schedule: Q01DX Z (ip), vehicle: carboxymethylcellulose (CMC) 95 % of control

O=c1[nH]c(=O)c(C2OC(CO)C(O)C2O)co1 (stereo not drawn)
inactive: dose: 6.25 mg/kg/injection, schedule: Q04DX003 (ip), vehicle: saline with Tween-80 123 % of control | dose: 12.5 mg/kg/injection, schedule: Q04DX003 (ip), vehicle: saline with Tween-80 106 % of control

O=C(O)CCC(=O)Oc1ccccc1
inactive: dose: 100.0 mg/kg/injection, schedule: Q04DX003 (ip), vehicle: other 92 % of control | dose: 200.0 mg/kg/injection, schedule: Q04DX003 (ip), vehicle: other 106 % of control

O=C(c1ccc(Br)cc1)C1SC2(C(=O)c3ccc(Br)cc3)SC(C(=O)c3ccc(Br)cc3)C(C(=O)c3ccc(Br)cc3)SC2(C(=O)c2ccc(Br)cc2)SC1C(=O)c1ccc(Br)cc1 (stereo not drawn)
inactive: [1] 100 % of control | [2] 94 % of control | [3] 94 % of control

CCCCCCCCSCCCCCCCCCCCSCCCCCCCC
inactive: [15] 102 % of control | [16] 92 % of control

O=C(C(=O)c1cccc(CC(O)(C(F)(F)F)C(F)(F)F)n1)c1cccc(CC(O)(C(F)(F)F)C(F)(F)F)n1
inactive: [11] 91 % of control | dose: 100.0 mg/kg/injection, schedule: Q04DX003 (ip), vehicle: saline 95 % of control | [12] 96 % of control | dose: 200.0 mg/kg/injection, schedule: Q04DX003 (ip), vehicle: saline 97 % of control | [13] 93 % of control | dose: 400.0 mg/kg/injection, schedule: Q04DX003 (ip), vehicle: saline 103 % of control

COc1c(OC)c(C(C)C)c2c(c1C(=O)O)C(=O)OC2=O
inactive: [15] 103 % of control | [4] 96 % of control | [16] 103 % of control | [5] 88 % of control | dose: 400.0 mg/kg/injection, schedule: Q01DX001 (ip), vehicle: Klucel (hydroxypropylcellulose) (HPC) 100 % of control | [6] 89 % of control

c1ccc(/C(=N\Nc2nc3ccccc3s2)c2ccncc2)cc1
inactive: [11] 89 % of control | [12] 91 % of control | [13] 96 % of control
